This is an account of results in patent US12516056B2, “Compounds for inhibition of janus kinase 1” (MANKIND PHARMA LTD., priority 2019, dated 2026).

Assay [1] has as its system STAT5 phosphorylation by GMCSF in TF-1 cells. Description: JAK cellular assay: STAT5 phosphorylation by GMCSF in TF-1 cells (HTRF). It counts as cell-based. The note with it: Homo sapiens; TF-1 cells, GMCSF 5 ng/ml, pSTAT5 HTRF; read-out: Cell Based Assay (μM) TF-1/GMCSF/pSTAT5. The method in brief: (§1)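 Phospho-STAT3 (IL-6, 30 ng/ml) and phospho-STAT5 (GMCSF, 5 ng/ml) read by HTRF in lysates after 20 min cytokine exposure, minus unstimulated-cell background. Cells were serum-starved overnight, plated at 120,000/well, given compound 30 min at 37 °C beforehand; DMSO 0.2% final.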

For a further assay, the target named is T1, Recombinant JAK3 (Homo sapiens, UniProt P52333).
T1 construct: purchased Carna Biosciences
T1 sequence (P52333 1-1124): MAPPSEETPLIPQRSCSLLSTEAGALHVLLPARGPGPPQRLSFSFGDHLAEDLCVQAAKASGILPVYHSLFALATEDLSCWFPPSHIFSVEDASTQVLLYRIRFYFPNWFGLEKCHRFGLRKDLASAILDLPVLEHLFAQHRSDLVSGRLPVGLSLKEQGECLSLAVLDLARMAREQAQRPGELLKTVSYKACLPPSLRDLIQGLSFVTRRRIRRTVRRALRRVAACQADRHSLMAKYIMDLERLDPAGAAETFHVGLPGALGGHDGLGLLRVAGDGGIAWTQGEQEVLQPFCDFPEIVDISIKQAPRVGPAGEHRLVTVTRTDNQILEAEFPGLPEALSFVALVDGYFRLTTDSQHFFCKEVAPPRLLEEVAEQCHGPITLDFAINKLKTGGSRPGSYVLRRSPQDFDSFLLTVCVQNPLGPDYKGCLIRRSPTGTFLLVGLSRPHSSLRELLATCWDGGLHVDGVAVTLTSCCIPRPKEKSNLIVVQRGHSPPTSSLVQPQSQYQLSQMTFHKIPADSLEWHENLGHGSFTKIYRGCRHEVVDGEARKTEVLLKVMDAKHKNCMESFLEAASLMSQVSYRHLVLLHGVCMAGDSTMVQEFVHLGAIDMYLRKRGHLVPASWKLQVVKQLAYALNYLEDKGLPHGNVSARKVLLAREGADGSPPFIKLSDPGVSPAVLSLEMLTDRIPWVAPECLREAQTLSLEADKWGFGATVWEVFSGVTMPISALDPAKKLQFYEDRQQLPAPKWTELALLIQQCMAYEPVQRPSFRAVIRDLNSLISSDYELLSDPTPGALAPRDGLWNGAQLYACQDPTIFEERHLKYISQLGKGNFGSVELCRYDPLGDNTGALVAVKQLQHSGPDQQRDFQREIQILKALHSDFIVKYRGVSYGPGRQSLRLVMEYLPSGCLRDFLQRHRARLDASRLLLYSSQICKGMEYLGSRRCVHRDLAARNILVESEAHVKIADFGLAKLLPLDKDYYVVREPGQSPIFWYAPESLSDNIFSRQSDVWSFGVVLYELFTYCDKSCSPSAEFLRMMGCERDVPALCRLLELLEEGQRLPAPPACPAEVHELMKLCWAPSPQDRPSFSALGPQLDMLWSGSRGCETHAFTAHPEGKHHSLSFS
Description: JAK biochemical assay (LANCE Ultra TR-FRET), JAK3. The following applies: recombinant JAK3, TR-FRET; read-out: Biochemical Assay (μM) JAK3. An outline of the steps:
(§2)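 Kinase reactions ran in buffer of 50 mM HEPES pH 7.5 with 1 mM EGTA, 10 mM MgCl2, 2 mM DTT and 0.01% Tween-20, using recombinant enzyme. Phosphorylated ULight substrate was detected by TR-FRET, and compound effect expressed as % inhibition against vehicle.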
(In TR-FRET formats the signal depends on donor and acceptor labels being close together.)

The target of a further assay is T2, Recombinant JAK2 (Homo sapiens, UniProt O60674).
T2 construct: purchased Carna Biosciences
T2 sequence (O60674 whole entry): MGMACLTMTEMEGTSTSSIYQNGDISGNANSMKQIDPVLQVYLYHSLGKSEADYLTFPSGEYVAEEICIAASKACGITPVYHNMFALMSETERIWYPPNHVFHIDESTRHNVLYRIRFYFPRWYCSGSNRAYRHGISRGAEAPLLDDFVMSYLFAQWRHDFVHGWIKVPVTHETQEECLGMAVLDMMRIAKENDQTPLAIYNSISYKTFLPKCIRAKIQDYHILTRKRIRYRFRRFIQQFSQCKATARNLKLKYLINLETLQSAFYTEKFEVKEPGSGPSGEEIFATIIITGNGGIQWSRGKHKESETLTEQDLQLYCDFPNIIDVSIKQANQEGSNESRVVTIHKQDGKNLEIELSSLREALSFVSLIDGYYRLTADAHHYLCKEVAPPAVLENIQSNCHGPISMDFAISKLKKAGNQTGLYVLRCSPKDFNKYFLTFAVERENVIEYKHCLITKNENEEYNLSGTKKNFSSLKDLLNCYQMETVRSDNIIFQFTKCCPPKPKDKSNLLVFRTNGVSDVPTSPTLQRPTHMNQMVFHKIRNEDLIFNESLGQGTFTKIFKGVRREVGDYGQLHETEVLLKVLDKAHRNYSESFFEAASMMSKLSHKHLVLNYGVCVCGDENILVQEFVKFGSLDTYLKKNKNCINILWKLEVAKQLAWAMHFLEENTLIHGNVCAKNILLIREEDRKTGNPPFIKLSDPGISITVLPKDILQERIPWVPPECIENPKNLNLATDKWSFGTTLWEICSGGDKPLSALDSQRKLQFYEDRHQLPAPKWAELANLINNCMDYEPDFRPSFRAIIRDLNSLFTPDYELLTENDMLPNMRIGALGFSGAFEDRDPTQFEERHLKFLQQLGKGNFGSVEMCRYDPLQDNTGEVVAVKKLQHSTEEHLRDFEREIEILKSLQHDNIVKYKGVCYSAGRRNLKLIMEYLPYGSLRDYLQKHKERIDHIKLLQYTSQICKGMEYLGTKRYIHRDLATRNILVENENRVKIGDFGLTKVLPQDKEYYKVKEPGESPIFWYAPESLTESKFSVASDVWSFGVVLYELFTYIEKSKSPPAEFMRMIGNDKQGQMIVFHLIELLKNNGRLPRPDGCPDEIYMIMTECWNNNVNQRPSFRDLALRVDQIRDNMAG
Description: JAK biochemical assay (LANCE Ultra TR-FRET), JAK2. The note with it: recombinant JAK2, TR-FRET; read-out: Biochemical Assay (μM) JAK2. The method in brief:
as §2

The target in another assay is T3, Recombinant TYK2 (Homo sapiens, UniProt P29597).
T3 construct: purchased Carna Biosciences
T3 sequence (P29597 whole entry): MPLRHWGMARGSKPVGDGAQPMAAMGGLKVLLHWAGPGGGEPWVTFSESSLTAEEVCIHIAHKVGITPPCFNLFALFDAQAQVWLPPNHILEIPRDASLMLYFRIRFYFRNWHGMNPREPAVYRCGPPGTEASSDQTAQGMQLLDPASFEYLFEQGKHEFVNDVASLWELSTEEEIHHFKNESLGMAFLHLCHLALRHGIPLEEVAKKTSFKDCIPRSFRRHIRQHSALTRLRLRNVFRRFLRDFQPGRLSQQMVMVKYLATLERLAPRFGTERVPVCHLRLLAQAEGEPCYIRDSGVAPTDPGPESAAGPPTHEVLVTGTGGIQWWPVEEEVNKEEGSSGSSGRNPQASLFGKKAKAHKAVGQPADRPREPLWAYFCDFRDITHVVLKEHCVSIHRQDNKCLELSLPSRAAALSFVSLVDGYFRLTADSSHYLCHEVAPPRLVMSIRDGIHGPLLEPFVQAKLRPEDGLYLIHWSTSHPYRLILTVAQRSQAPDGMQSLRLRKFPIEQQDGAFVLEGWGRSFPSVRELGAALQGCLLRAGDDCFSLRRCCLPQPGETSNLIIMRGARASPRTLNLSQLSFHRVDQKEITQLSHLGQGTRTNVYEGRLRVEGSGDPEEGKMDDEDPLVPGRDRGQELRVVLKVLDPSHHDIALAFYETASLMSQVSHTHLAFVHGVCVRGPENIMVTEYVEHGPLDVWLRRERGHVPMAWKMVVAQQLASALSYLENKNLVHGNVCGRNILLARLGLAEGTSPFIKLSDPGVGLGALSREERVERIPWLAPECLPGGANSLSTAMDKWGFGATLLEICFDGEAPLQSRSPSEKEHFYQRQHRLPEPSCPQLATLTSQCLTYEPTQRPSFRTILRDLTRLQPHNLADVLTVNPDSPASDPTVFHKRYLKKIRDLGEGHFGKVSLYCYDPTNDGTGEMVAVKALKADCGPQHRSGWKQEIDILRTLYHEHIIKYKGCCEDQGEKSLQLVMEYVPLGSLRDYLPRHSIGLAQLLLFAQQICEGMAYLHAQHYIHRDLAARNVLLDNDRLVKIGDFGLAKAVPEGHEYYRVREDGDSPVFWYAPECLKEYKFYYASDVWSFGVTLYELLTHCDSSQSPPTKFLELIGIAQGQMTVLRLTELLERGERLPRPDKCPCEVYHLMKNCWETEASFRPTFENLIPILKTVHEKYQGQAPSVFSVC
Description: JAK biochemical assay (LANCE Ultra TR-FRET), TYK2. The following applies: recombinant TYK2, TR-FRET; read-out: Biochemical Assay (μM) TYK2. The method in brief:
as §2

For assay [2], the system named is STAT3 phosphorylation by IL-6 in TF-1 cells. Description: JAK cellular assay: STAT3 phosphorylation by IL-6 in TF-1 cells (HTRF). The following applies: Homo sapiens, TF-1, TF-1 cells, IL-6 30 ng/ml, pSTAT3 HTRF; read-out: Cell Based Assay (μM) TF-1/IL-6/pSTAT3. It counts as cell-based. An outline of the steps: as §1
Another assay addresses T4, Recombinant JAK1 (Homo sapiens, UniProt P23458).
T4 construct: purchased Carna Biosciences
Description: JAK biochemical assay (LANCE Ultra TR-FRET), JAK1. The note with it: recombinant JAK1, TR-FRET; read-out: Biochemical Assay (μM) JAK1. An outline of the steps: as §2

Molecules are shown by their SMILES.

T4 sequence (P23458 whole entry): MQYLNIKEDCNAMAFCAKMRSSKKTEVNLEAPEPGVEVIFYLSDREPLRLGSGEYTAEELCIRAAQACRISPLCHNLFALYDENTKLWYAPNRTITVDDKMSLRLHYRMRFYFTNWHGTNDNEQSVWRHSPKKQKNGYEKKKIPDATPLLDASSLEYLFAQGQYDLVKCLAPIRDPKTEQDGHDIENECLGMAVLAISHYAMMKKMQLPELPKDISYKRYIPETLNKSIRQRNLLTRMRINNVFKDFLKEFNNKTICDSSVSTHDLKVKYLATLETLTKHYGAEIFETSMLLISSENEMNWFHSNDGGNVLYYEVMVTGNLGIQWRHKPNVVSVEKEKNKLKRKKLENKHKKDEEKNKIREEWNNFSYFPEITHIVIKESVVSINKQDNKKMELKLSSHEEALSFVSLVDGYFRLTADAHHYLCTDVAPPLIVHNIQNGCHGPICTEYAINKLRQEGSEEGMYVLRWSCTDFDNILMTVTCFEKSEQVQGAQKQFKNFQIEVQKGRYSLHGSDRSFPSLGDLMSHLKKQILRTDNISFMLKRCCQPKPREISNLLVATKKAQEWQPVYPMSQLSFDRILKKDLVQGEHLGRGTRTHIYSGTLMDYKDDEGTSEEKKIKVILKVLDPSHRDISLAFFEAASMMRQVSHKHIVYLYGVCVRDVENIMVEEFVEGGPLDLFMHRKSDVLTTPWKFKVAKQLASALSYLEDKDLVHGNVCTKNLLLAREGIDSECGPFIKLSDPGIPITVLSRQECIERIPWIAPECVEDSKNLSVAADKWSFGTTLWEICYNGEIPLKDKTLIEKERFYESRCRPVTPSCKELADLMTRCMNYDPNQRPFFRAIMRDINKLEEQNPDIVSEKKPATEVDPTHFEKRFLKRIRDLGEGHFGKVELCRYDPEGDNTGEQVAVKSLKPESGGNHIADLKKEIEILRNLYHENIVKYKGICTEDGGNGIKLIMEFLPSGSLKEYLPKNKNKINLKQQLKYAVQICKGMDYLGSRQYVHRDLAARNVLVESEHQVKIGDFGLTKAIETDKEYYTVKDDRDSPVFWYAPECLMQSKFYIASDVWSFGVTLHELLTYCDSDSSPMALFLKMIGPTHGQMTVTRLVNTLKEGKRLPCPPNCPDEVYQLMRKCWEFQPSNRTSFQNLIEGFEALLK

Regarding `CC(C(N)=O)c1ccc(-n2cc(-c3ccnc4[nH]cnc34)cn2)nc1` (stereo not drawn) [Example 1108, 2-(6-(4-(3H-imidazo[4,5-b]pyridin-7-yl)-1H-pyrazol-1-yl)pyridin-3-yl)propanamide], the IC50 is above 10 µM in assay [1]; above 0.1 µM at Recombinant JAK3; above 0.5 µM at Recombinant JAK2; above 1 µM at Recombinant TYK2; above 10 µM in assay [2]; above 0.1 µM on Recombinant JAK1.
Turning to `CC(C)[C@@H](C#N)NC(=O)n1cc(-c2ccnc3[nH]c(=O)[nH]c23)cn1` [Example 1047, N-((S)-1-cyano-2-methylpropyl)-4-(2,3-dihydro-2-oxo-1H-imidazo[4,5-b]pyridin-7-yl)-1H-pyrazole-1-carboxamide], the IC50 was 10 µM in assay [1]; below 0.5 µM at Recombinant JAK3; below 0.5 µM on Recombinant JAK2; below 0.5 µM on Recombinant TYK2; 4.9 µM in assay [2]; below 0.5 µM at Recombinant JAK1.
With `OC(c1ccc(-n2cc(-c3ccnc4[nH]cnc34)cn2)nc1)(C1CCNCC1)C(F)(F)F` (stereo not drawn) [Example 1135, 1-(6-(4-(3H-imidazo[4,5-b]pyridin-7-yl)-1H-pyrazol-1-yl)pyridin-3-yl)-2,2,2-trifluoro-1-(piperidin-4-yl)ethan-1-ol], the IC50 is above 10 µM in assay [1]; below 0.1 µM on Recombinant JAK3; below 0.1 µM on Recombinant JAK2; below 0.1 µM on Recombinant TYK2; above 1 µM in assay [2]; below 0.1 µM on Recombinant JAK1.
For the molecule `N#CCC(NC(=O)n1cc(-c2ccnc3[nH]c(=O)[nH]c23)cn1)C1CC1` (stereo not drawn) [Example 1051, N-(2-cyano-1-cyclopropylethyl)-4-(2,3-dihydro-2-oxo-1H-imidazo[4,5-b]pyridin-7-yl)-1H-pyrazole-1-carboxamide], the IC50 in assay [1] is above 10 µM; at Recombinant JAK3, above 1 µM; on Recombinant JAK2, below 0.5 µM; at Recombinant TYK2, below 0.5 µM; in assay [2], below 10 µM; at Recombinant JAK1, below 0.5 µM.
As for `CS(=O)(=O)NC(c1ccc(-n2cc(-c3ccnc4[nH]cnc34)cn2)nc1)C(F)(F)F` (stereo not drawn) [Example 1187], the IC50 in assay [1] was above 1 µM; on Recombinant JAK3, below 0.1 µM; at Recombinant JAK2, above 0.1 µM; on Recombinant TYK2, above 1 µM; in assay [2], above 1 µM; on Recombinant JAK1, below 0.1 µM.
In the case of `FC(F)(F)C(CNC1CC1)c1ccc(-n2cc(-c3ccnc4[nH]cnc34)cn2)nc1` (stereo not drawn) [Example 1212, N-(2-(6-(4-(3H-imidazo[4,5-b]pyridin-7-yl)-1H-pyrazol-1-yl)pyridin-3-yl)-3,3,3-trifluoropropyl)cyclopropanamine], the IC50 in assay [1] is above 1 µM; at Recombinant JAK3, below 0.1 µM; at Recombinant JAK2 it was below 0.1 µM; on Recombinant TYK2 it was above 0.5 µM; in assay [2] it was above 0.75 µM; at Recombinant JAK1, below 0.1 µM.
As to `OC(c1ccc(-n2cc(-c3ccnc4[nH]cnc34)cn2)cn1)C(F)(F)F` (stereo not drawn) [Example 1173, 1-(5-(4-(3H-imidazo[4,5-b]pyridin-7-yl)-1H-pyrazol-1-yl)pyridin-2-yl)-2,2,2-trifluoroethanol], the IC50 in assay [1] is above 10 µM; on Recombinant JAK3, below 0.1 µM; at Recombinant JAK2, below 0.1 µM; on Recombinant TYK2, above 1 µM; in assay [2] it was 10 µM; on Recombinant JAK1, below 0.1 µM.
Take `O=C(NCC(F)(F)F)C(c1ccc(-n2cc(-c3ccnc4[nH]cnc34)cn2)nc1)C1CC1` (stereo not drawn) [Example 1167, 2-(6-(4-(3H-imidazo[4,5-b]pyridin-7-yl)-1H-pyrazol-1-yl)pyridin-3-yl)-2-cyclopropyl-N-(2,2,2-trifluoroethyl)acetamide]: the IC50 is above 10 µM in assay [1]; 0.173 µM on Recombinant JAK3; 0.3 µM on Recombinant JAK2; above 10 µM on Recombinant TYK2; 10 µM in assay [2]; 0.096 µM at Recombinant JAK1.
For `N#CCc1ccnc(-n2cc(-c3ccnc4[nH]cnc34)cn2)c1` [Example 1118, 2-(2-(4-(3H-imidazo[4,5-b]pyridin-7-yl)-1H-pyrazol-1-yl)pyridin-4-yl)acetonitrile], the IC50 in assay [1] is above 10 µM; at Recombinant JAK3, above 0.5 µM; at Recombinant JAK2, above 0.5 µM; at Recombinant TYK2, above 1 µM; in assay [2] it was above 10 µM; on Recombinant JAK1, above 0.5 µM.
For `N#CCOC(c1ccc(-n2cc(-c3ccnc4[nH]cnc34)cn2)nc1)C(F)(F)F` (stereo not drawn) [Example 1157, 2-(1-(6-(4-(3H-imidazo[4,5-b]pyridin-7-yl)-1H-pyrazol-1-yl)pyridin-3-yl)-2,2,2-trifluoroethoxy)acetonitrile], the IC50 was above 10 µM in assay [1]; below 0.1 µM on Recombinant JAK3; below 0.1 µM at Recombinant JAK2; above 0.5 µM at Recombinant TYK2; below 1 µM in assay [2]; below 0.1 µM at Recombinant JAK1.
Take `OC(Cc1ccc(-n2cc(-c3ccnc4[nH]cnc34)cn2)nc1)C(F)(F)F` (stereo not drawn) [Example 1183, 3-(6-(4-(3H-imidazo[4,5-b]pyridin-7-yl)-1H-pyrazol-1-yl)pyridin-3-yl)-1,1,1-trifluoropropan-2-ol]: the IC50 was above 1 µM in assay [1]; above 0.1 µM at Recombinant JAK3; above 0.5 µM at Recombinant JAK2; above 1 µM at Recombinant TYK2; 1 µM in assay [2]; above 0.1 µM at Recombinant JAK1.
For `OCC(Cc1ccc(-n2cc(-c3ccnc4[nH]cnc34)cn2)nc1)C(F)(F)F` (stereo not drawn) [Example 1191, 3-(6-(4-(3H-imidazo[4,5-b]pyridin-7-yl)-1H-pyrazol-1-yl)pyridin-3-yl)-2-(trifluoromethyl)propan-1-ol], the IC50 in assay [1] was above 1 µM; on Recombinant JAK3 it was below 0.1 µM; on Recombinant JAK2, below 0.1 µM; on Recombinant TYK2, above 1 µM; in assay [2], above 1 µM; on Recombinant JAK1 it was below 0.1 µM.
For `CC(NC(=O)n1cc(-c2ccnc3[nH]c(=O)[nH]c23)cn1)C(=O)N1CC(C#N)C1` (stereo not drawn) [Example 1058, N-(1-(3-cyanoazetidin-1-yl)-1-oxopropan-2-yl)-4-(2-oxo-2,3-dihydro-1H-imidazo[4,5-b]pyridin-7-yl)-1H-pyrazole-1-carboxamide], the IC50 is above 10 µM in assay [1]; above 10 µM on Recombinant JAK3; above 1 µM on Recombinant JAK2; above 10 µM at Recombinant TYK2; above 10 µM in assay [2]; above 1 µM at Recombinant JAK1.
Turning to `CS(=O)(=O)CCC(C#N)c1ccc(-n2cc(-c3ccnc4[nH]cnc34)cn2)nc1` (stereo not drawn) [Example 1116, 2-(6-(4-(3H-imidazo[4,5-b]pyridin-7-yl)-1H-pyrazol-1-yl)pyridin-3-yl)-4-(methylsulfonyl) butanenitrile], the IC50 in assay [1] was above 10 µM; on Recombinant JAK3, above 0.1 µM; on Recombinant JAK2, above 0.5 µM; on Recombinant TYK2, above 1 µM; in assay [2] it was above 1 µM; on Recombinant JAK1 it was above 0.1 µM.
Consider `O=C(NCC(F)(F)F)n1cc(-c2ccnc3[nH]c(=O)[nH]c23)cn1` [Example 1026, N-(2,2,2-trifluoroethyl)-4-(2,3-dihydro-2-oxo-1H-imidazo[4,5-b]pyridin-7-yl)-1H-pyrazole-1-carboxamide], for which the IC50 was above 10 µM in assay [1]; 0.283 µM at Recombinant JAK3; 0.048 µM at Recombinant JAK2; 0.122 µM on Recombinant TYK2; above 1 µM in assay [2]; 0.041 µM at Recombinant JAK1.
